Laboratory results from US20250171495A1, “MUTLI-TARGETED SERINE PROTEASE INHIBITORS FOR TREATMENT OF CANCER AND VIRAL INFECTION” (Washington University, priority 2023, published 2025).
Values joined by “and” are separate entries in the source; they are usually repeats but may differ in a detail not shown here. Identical values can stand only once. Like-named read-outs stand apart in the source and are kept apart here. Each block holds one compound with its values, some of them ahead of it.

How the values were obtained:
Type in all cases: biochemical
TMPRSS2 [1] = target: T1, TMPRSS2 (Homo sapiens, UniProt O15393); test: Fluorogenic kinetic enzyme inhibitor assay, TMPRSS2; set-up: purchased Cusabio Technology CSB-YP023924HU
Target sequence in this assay (O15393 106-492 limits assumed): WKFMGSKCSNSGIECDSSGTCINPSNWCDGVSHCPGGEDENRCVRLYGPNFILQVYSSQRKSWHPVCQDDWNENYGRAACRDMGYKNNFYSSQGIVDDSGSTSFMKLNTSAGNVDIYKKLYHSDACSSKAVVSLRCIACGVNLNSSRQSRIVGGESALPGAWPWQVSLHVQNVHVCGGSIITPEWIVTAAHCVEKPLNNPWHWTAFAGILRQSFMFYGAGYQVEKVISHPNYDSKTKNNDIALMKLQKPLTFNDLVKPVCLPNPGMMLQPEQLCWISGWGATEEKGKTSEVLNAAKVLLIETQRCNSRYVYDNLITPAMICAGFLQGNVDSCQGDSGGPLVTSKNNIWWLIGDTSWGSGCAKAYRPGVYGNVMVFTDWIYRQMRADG

hepsin = target: T2, hepsin (Homo sapiens, UniProt P05981); test: HyCoSuL P4-P2 substrate specificity screening, hepsin; conditions: for P2 Position Substrate Activity for hepsin (percent substrate cleavage/proteolysis): residue fixed at P2 position; for P3 Position Various Amino Acids Substrate Activity, hepsin (percent substrate cleavage/proteolysis): residue fixed at P3 position of substrate library; for P4 Position Various Amino Acids Substrate Activity, hepsin (percent substrate proteolysis/cleavage): residue fixed at P4 position of substrate library
T2 construct: purchased R&D Systems 4776-SE-010
T2 sequence (P05981 163-417 limits assumed): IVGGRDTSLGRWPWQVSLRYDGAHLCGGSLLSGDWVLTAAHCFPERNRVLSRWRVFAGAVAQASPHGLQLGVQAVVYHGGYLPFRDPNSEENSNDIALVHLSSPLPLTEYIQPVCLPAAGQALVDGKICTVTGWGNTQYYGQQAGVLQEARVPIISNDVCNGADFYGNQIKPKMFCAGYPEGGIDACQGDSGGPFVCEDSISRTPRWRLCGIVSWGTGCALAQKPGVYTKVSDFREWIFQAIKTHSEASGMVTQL
T2 sequence (P05981 1-162 partner limits assumed): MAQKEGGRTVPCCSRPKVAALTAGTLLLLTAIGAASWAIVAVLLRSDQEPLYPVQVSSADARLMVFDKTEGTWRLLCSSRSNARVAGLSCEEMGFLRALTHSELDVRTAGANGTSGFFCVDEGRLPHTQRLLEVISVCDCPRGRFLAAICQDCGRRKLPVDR

matriptase = target: T3, matriptase (Homo sapiens, UniProt Q9Y5Y6); test: HyCoSuL P4-P2 substrate specificity screening, matriptase; conditions: for P2 Position Substrate Activity for matriptase (percent substrate cleavage/proteolysis): residue fixed at P2 position; for P3 Position Various Amino Acids Substrate Activity, matriptase (percent substrate cleavage/proteolysis): residue fixed at P3 position of substrate library; for P4 Position Various Amino Acids Substrate Activity, matriptase (percent substrate proteolysis/cleavage): residue fixed at P4 position of substrate library
T3 sequence (Q9Y5Y6 1-855): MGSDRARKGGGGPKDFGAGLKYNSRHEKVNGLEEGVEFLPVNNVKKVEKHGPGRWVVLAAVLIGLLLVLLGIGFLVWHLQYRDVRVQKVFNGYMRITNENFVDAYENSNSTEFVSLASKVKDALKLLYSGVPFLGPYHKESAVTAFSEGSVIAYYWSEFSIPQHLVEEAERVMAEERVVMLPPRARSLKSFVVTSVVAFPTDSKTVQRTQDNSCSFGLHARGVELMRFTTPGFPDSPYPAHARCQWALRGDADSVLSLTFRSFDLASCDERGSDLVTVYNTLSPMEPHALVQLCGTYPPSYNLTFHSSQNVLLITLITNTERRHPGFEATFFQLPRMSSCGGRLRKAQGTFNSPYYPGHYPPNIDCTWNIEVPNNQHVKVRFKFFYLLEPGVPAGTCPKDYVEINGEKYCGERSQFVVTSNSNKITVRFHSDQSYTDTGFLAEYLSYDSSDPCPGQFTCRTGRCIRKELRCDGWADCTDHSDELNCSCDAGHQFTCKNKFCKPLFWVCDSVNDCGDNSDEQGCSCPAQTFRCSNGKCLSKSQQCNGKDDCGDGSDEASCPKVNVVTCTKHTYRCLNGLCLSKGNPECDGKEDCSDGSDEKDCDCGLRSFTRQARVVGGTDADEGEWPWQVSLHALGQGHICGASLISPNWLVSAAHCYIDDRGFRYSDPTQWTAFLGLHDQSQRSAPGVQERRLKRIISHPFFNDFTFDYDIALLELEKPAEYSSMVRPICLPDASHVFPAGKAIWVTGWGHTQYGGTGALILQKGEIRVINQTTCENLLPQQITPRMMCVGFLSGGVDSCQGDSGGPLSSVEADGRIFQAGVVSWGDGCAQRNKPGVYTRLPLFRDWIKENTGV

TMPRSS2 [2] = target: T1, TMPRSS2; test: PS-SCL / HyCoSuL substrate specificity screening, TMPRSS2; conditions: for P2 Position Substrate Activity for TMPRSS2 (percent substrate cleavage/proteolysis): residue fixed at P2 position of substrate library
Target sequence in this assay (O15393 whole entry): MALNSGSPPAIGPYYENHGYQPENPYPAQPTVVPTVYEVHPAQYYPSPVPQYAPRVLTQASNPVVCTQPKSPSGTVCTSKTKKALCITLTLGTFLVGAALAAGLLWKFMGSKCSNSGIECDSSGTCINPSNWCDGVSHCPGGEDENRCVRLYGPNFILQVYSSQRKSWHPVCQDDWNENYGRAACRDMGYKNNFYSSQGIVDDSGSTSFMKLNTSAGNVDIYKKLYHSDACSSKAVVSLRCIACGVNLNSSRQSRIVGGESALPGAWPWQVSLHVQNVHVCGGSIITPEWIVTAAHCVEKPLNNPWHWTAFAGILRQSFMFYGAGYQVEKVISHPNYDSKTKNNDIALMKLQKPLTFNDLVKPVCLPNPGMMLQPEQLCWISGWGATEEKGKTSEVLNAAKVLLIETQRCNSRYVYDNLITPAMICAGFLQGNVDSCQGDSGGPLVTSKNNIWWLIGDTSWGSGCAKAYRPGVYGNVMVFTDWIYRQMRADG

HGFA = target: T4, HGFA (Homo sapiens, UniProt Q04756); test: HyCoSuL P4-P2 substrate specificity screening, HGFA; conditions: for P2 Position Substrate Activity for HGFA (percent substrate cleavage/proteolysis): residue fixed at P2 position; for P3 Position Various Amino Acids Substrate Activity, HGFA (percent substrate cleavage/proteolysis): residue fixed at P3 position of substrate library; for P4 Position Various Amino Acids Substrate Activity, HGFA (percent substrate proteolysis/cleavage): residue fixed at P4 position of substrate library
T4 sequence (Q04756 373-655): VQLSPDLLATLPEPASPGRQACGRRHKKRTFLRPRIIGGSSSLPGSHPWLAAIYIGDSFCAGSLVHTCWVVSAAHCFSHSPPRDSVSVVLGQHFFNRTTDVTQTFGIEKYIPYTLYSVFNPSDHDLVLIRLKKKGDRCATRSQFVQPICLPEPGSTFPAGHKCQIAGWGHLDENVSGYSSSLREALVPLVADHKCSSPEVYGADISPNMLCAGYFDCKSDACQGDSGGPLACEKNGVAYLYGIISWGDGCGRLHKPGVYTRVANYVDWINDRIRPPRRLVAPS

[3] = P1-Arg HyCoSuL, 100 μM, best recognized amino acid set to 100%
[4] = best recognized amino acid set to 100%
[5] = residue fixed at P3 position of substrate library
[6] = residue fixed at P4 position of substrate library
[7] = residue fixed at P3 position, P1-Arg HyCoSuL, 100 μM, best recognized amino acid set to 100%
[8] = residue fixed at P4 position, P1-Arg HyCoSuL, 100 μM, best recognized amino acid set to 100%

Compound: C=CCOC(=O)CC[C@H](NC(=O)[C@@H]1Cc2ccccc2N1C(C)=O)C(=O)N[C@@H](Cc1ccc(F)cc1)C(=O)N[C@H](CCCNC(=N)N)C(=O)c1nc2ccccc2s1 [MF1067A, allyl (S)-4-[(S)-1-acetyl-2-indolinylcarbonylamino]-4-[N-(S)-2-(p-fluorophenyl)-1-[N-(R)-1-[(1,3-benzothiazol-2-yl)carbonyl]-4-guanidinobutylcarbamoyl]ethylcarbamoyl]butyrate]
IC50 (TMPRSS2 [1]): 0.431 nM

Compound: C=CCOC(=O)CC[C@H](NC(=O)[C@@H]1Cc2ccccc2N1C(C)=O)C(=O)N[C@@H](Cc1ccc(F)cc1)C(=O)N[C@@H](CCCNC(=N)N)C(=O)c1nc2ccccc2s1 [MF1067B, allyl (S)-4-[(S)-1-acetyl-2-indolinylcarbonylamino]-4-[N-(S)-2-(p-fluorophenyl)-1-[N-(S)-1-[(1,3-benzothiazol-2-yl)carbonyl]-4-guanidinobutylcarbamoyl]ethylcarbamoyl]butyrate]
IC50 (TMPRSS2 [1]): 0.2 nM

Compound: N=C(N)NCCC[C@H](NC(=O)[C@H](Cc1ccccc1)NC(=O)[C@H](N)Cc1c[nH]c2ccccc12)C(=O)c1nc2ccccc2s1 [PK-1-18A1, N-[(S)-1-[(1,3-benzothiazol-2-yl)carbonyl]-4-guanidinobutyl](S)-2-[(R)-2-amino-3-(3-indolyl)propionylamino]-3-phenylpropionamide]
IC50 (TMPRSS2 [1]; read-out: TMPRSS2 IC50): 25.8 nM

Compound: N=C(N)NCCC[C@H](NC(=O)[C@H](Cc1ccccc1)NC(=O)[C@H](N)Cc1c[nH]c2ccccc12)C(=O)c1nc2ccc(C(=O)O)cc2s1 [PK-1-45A1, 2-[(S)-2-[(S)-2-[(R)-2-amino-3-(3-indolyl)propionylamino]-3-phenylpropionylamino]-5-guanidinovaleryl]-1,3-benzothiazole-6-carboxylic acid]
IC50 (TMPRSS2 [1]; read-out: TMPRSS2 IC50): 1.94 nM

Compound: L-Trp
P2 Position Substrate Activity for hepsin (percent substrate cleavage/proteolysis) (hepsin; [3]): 6.00%
P3 Position Various Amino Acids Substrate Activity, hepsin (percent substrate cleavage/proteolysis) (hepsin): 0.00%
P4 Position Various Amino Acids Substrate Activity, hepsin (percent substrate proteolysis/cleavage) (hepsin): 6.82%
P2 Position Substrate Activity for matriptase (percent substrate cleavage/proteolysis) (matriptase; [3]): 32%
P3 Position Various Amino Acids Substrate Activity, matriptase (percent substrate cleavage/proteolysis) (matriptase): 11%
P4 Position Various Amino Acids Substrate Activity, matriptase (percent substrate proteolysis/cleavage) (matriptase): 9%
P2 Position Substrate Activity for TMPRSS2 (percent substrate cleavage/proteolysis) (TMPRSS2 [2]; [4]): 33.05%
P3 Position Various Amino Acids Substrate Activity, TMPRSS2 (percent substrate cleavage/proteolysis) (TMPRSS2 [2]; [5]): 22.96%
P4 Position Various Amino Acids Substrate Activity, TMPRSS2 (percent substrate proteolysis/cleavage) (TMPRSS2 [2]; [6]): 24.62%
P2 Position Substrate Activity for HGFA (percent substrate cleavage/proteolysis) (HGFA; [3]): 4.04%
P3 Position Various Amino Acids Substrate Activity, HGFA (percent substrate cleavage/proteolysis) (HGFA): 17.50%
P4 Position Various Amino Acids Substrate Activity, HGFA (percent substrate proteolysis/cleavage) (HGFA): 8.78%

Compound: L-Tyr
P2 Position Substrate Activity for hepsin (percent substrate cleavage/proteolysis) (hepsin; [3]): 22.79%
P3 Position Various Amino Acids Substrate Activity, hepsin (percent substrate cleavage/proteolysis) (hepsin): 7.75%
P4 Position Various Amino Acids Substrate Activity, hepsin (percent substrate proteolysis/cleavage) (hepsin): 22.39%
P2 Position Substrate Activity for matriptase (percent substrate cleavage/proteolysis) (matriptase; [3]): 12%
P3 Position Various Amino Acids Substrate Activity, matriptase (percent substrate cleavage/proteolysis) (matriptase): 17%
P4 Position Various Amino Acids Substrate Activity, matriptase (percent substrate proteolysis/cleavage) (matriptase): 14%
P2 Position Substrate Activity for TMPRSS2 (percent substrate cleavage/proteolysis) (TMPRSS2 [2]; [4]): 31.93%
P3 Position Various Amino Acids Substrate Activity, TMPRSS2 (percent substrate cleavage/proteolysis) (TMPRSS2 [2]; [5]): 16.18%
P4 Position Various Amino Acids Substrate Activity, TMPRSS2 (percent substrate proteolysis/cleavage) (TMPRSS2 [2]; [6]): 31.87%
P2 Position Substrate Activity for HGFA (percent substrate cleavage/proteolysis) (HGFA; [3]): 3.17%
P3 Position Various Amino Acids Substrate Activity, HGFA (percent substrate cleavage/proteolysis) (HGFA): 11.59%
P4 Position Various Amino Acids Substrate Activity, HGFA (percent substrate proteolysis/cleavage) (HGFA): 16.47%

The next lines start with the values.

IC50 (TMPRSS2 [1]; read-out: TMPRSS2 IC50): 0.167 nM
Compound: N=C(N)NCCC[C@H](NC(=O)[C@H](CCc1ccc(O)cc1)NC(=O)OCC1c2ccccc2-c2ccccc21)C(=O)c1nc2ccccc2s1 [MF1163, (S)-3-(p-hydroxyphenyl)-1-[N-(S)-1-[(1,3-benzothiazol-2-yl)carbonyl]-4-guanidinobutylcarbamoyl] propyl (9H-fluoren-9-yl)methanecarbamate]

IC50 (TMPRSS2 [1]; read-out: TMPRSS2 IC50): 458 nM
Compound: CC(C)CC[C@H](NC(=O)OCC1c2ccccc2-c2ccccc21)C(=O)N[C@@H](CCCNC(=N)N)C(=O)c1nc2ccccc2s1 [MF1164, (S)-4-methyl-1-[N-(S)-1-[(1,3-benzothiazol-2-yl)carbonyl]-4-guanidinobutylcarbamoyl] pentyl (9H-fluoren-9-yl)methanecarbamate]

IC50 (TMPRSS2 [1]; read-out: TMPRSS2 IC50): 6.46 nM
Compound: CC(=O)NCC(=O)N[C@@H](CCC(N)=O)C(=O)N[C@@H](Cc1ccccc1)C(=O)N[C@H](CCCNC(=N)N)C(=O)c1nc2ccccc2s1 [MM3122-1, N-[(S)-1-[N-(R)-1-[(1,3-benzothiazol-2-yl)carbonyl]-4-guanidinobutylcarbamoyl]-2-phenylethyl](S)-2-[(acetylaminomethyl)carbonylamino]glutaramide]

IC50 (TMPRSS2 [1]; read-out: TMPRSS2 IC50): 7.54 nM
Compound: CC(=O)N[C@@H](CCCCNC(=N)N)C(=O)N[C@@H](Cc1cncn1COCc1ccccc1)C(=O)N[C@@H](CCC(C)C)C(=O)N[C@H](CCCNC(=N)N)C(=O)c1nc2ccccc2s1 [MM4031-1, N-[(R)-1-[(1,3-benzothiazol-2-yl)carbonyl]-4-guanidinobutyl](S)-2-[(S)-2-[(S)-1-acetylamino-5-guanidinopentylcarbonylamino]-3-{1-[(benzyloxy)methyl]-5-imidazolyl}propionylamino]-5-methylhexanamide]

IC50 (TMPRSS2 [1]; read-out: TMPRSS2 IC50): 9.39 nM
Compound: CC(=O)N[C@@H](CCCCNC(=N)N)C(=O)N[C@@H](Cc1cncn1COCc1ccccc1)C(=O)N[C@@H](CCC(C)C)C(=O)N[C@@H](CCCNC(=N)N)C(=O)c1nc2ccccc2s1 [MM4031-2, N-[(S)-1-[(1,3-benzothiazol-2-yl)carbonyl]-4-guanidinobutyl](S)-2-[(S)-2-[(S)-1-acetylamino-5-guanidinopentylcarbonylamino]-3-{1-[(benzyloxy)methyl]-5-imidazolyl}propionylamino]-5-methylhexanamide]

IC50 (TMPRSS2 [1]; read-out: TMPRSS2 IC50): 0.385 nM
Compound: CCC(C)[C@H](NC(C)=O)C(=O)N[C@@H](CCC(=O)O)C(=O)N[C@@H](Cc1ccccc1)C(=O)N[C@H](CCCNC(=N)N)C(=O)c1nc2ccccc2s1 (stereo partly drawn) [MM4037-1, (S)-4-[(2S)-2-acetylamino-3-methylvalerylamino]-4-[N-(S)-1-[N-(R)-1-[(1,3-benzothiazol-2-yl)carbonyl]-4-guanidinobutylcarbamoyl]-2-phenylethylcarbamoyl]butyric acid]

IC50 (TMPRSS2 [1]; read-out: TMPRSS2 IC50): 1.91 nM
Compound: CC(=O)N[C@H](Cc1c[nH]c2ccccc12)C(=O)N[C@@H](CC(C)C)C(=O)N[C@@H](CCCNC(=N)N)C(=O)c1nc2ccc(C(=O)O)cc2s1 [PK-1-94, 2-[(S)-2-[(S)-2-[(R)-2-acetylamino-3-(3-indolyl)propionylamino]-4-methylvalerylamino]-5-guanidinovaleryl]-1,3-benzothiazole-6-carboxylic acid]

P2 Position Substrate Activity for hepsin (percent substrate cleavage/proteolysis) (hepsin; [3]): 57.96%
P3 Position Substrate Activity for hepsin (percent substrate cleavage/proteolysis) (hepsin; [7]): 47.00%
P4 Position Substrate Activity for hepsin (percent substrate cleavage/proteolysis) (hepsin; [8]): 56.24%
P2 Position Substrate Activity for matriptase (percent substrate cleavage/proteolysis) (matriptase; [3]): 16%
P3 Position Various Amino Acids Substrate Activity, matriptase (percent substrate cleavage/proteolysis) (matriptase): 44%
P3 Position Substrate Activity for matriptase (percent substrate cleavage/proteolysis) (matriptase; [7]): 44.42%
P4 Position Various Amino Acids Substrate Activity, matriptase (percent substrate proteolysis/cleavage) (matriptase): 86%
P4 Position Substrate Activity for matriptase (percent substrate cleavage/proteolysis) (matriptase; [8]): 76.43% and 86.17%
P2 Position Substrate Activity for TMPRSS2 (percent substrate cleavage/proteolysis) (TMPRSS2 [2]; [4]): 13.07%
P3 Position Substrate Activity for TMPRSS2 (percent substrate cleavage/proteolysis) (TMPRSS2 [2]; residue fixed at P3 position of substrate library, best recognized amino acid set to 100%): 18.34%
P4 Position Substrate Activity for TMPRSS2 (percent substrate cleavage/proteolysis) (TMPRSS2 [2]; residue fixed at P4 position of substrate library, best recognized amino acid set to 100%): 44.91%
P2 Position Substrate Activity for HGFA (percent substrate cleavage/proteolysis) (HGFA; [3]): 5.83%
P3 Position Substrate Activity for HGFA (percent substrate cleavage/proteolysis) (HGFA; [7]): 100.00%
P4 Position Substrate Activity for HGFA (percent substrate cleavage/proteolysis) (HGFA; [8]): 22.07%
Compound: L-hArg
